Test results published in patent publication US12312332B2 (Merck Sharp & Dohme LLC., priority 2019, dated 2025).

Target: T1, human OX2R (Homo sapiens, UniProt O43614)
T1 construct: expressed in transfected cells; host or cells: Chinese hamster ovary (CHO) cells, kept under G418 selection
T1 sequence (O43614 1-444): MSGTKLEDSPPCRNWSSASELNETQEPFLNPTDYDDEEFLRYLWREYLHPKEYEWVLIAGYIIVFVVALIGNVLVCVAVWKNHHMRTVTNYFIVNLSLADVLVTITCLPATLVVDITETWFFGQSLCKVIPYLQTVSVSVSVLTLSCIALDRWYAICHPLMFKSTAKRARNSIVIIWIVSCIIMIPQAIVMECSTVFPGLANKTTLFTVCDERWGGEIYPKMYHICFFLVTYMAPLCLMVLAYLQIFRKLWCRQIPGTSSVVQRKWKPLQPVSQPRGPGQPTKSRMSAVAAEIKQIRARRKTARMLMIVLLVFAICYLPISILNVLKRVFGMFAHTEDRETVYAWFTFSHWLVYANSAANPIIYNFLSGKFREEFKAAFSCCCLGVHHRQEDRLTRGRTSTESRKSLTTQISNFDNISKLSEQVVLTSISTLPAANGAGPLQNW
Test: IPOne (IP-One) orexin receptor agonist assay in CHO cells expressing human OX2R
Assay type: cell-based
Conditions: for EC50: CHO cells expressing human OX2R, IP-One detection, 2 hours incubation, four parameter logistic fit, read-out: OX2R Potency, EC50; for % max agonist effect (Emax): human OX2R, percentage of sample raw value/mean max effect (reference compound at 1 uM with 100% activity)

Structure (SMILES)	EC50	% max agonist effect (Emax)
CS(=O)(=O)N[C@H]1CCN(c2cc(C(F)F)ccn2)[C@H]1CO[C@H]1CC[C@@H](c2ccccc2)CC1 [Example 143, N-((2R,3S)-1-(4-(difluoromethyl)pyridin-2-yl)-2-((((CIS)-4-phenylcyclohexyl)oxy)methyl)pyrrolidin-3-yl)methanesulfonamide]	1820 nM	95.6%
Cc1ccnc(N2CC[C@H](NS(C)(=O)=O)[C@@H]2CO[C@H]2CC[C@@H](c3ccccc3)CC2)c1 [Example 144, N-((2R,3S)-1-(4-methylpyridin-2-yl)-2-((((CIS)-4-phenylcyclohexyl)oxy)methyl)pyrrolidin-3-yl)methanesulfonamide]	794 nM	98%
CS(=O)(=O)N[C@H]1CCN(c2ccc(C#N)nc2)[C@H]1CO[C@H]1CC[C@@H](c2ccccc2)CC1 [Example 145, N-((2R,3S)-1-(6-cyanopyridin-3-yl)-2-((((CIS)-4-phenylcyclohexyl)oxy)methyl)pyrrolidin-3-yl)methanesulfonamide]	9.8 nM	100.6%
COc1cccc(N2CC[C@H](NS(C)(=O)=O)[C@@H]2CO[C@H]2CC[C@@H](c3ccccc3)CC2)c1 [Example 146, N-((2R,3S)-1-(3-methoxyphenyl)-2-((((CIS)-4-phenylcyclohexyl)oxy)methyl)pyrrolidin-3-yl)methanesulfonamide]	1830 nM	84.6%
CS(=O)(=O)N[C@H]1CCN(c2cccc(C#N)c2)[C@H]1CO[C@H]1CC[C@@H](c2ccccc2)CC1 [Example 147, N-((2R,3S)-1-(3-cyanophenyl)-2-((((CIS)-4-phenylcyclohexyl)oxy)methyl)pyrrolidin-3-yl)methanesulfonamide]	> 10000 nM	74.1%
CS(=O)(=O)N[C@H]1CCN(c2cccc(=O)[nH]2)[C@H]1CO[C@H]1CC[C@@H](c2ccccc2)CC1 [Example 148, N-((2R,3S)-1-(6-oxo-1,6-dihydropyridin-2-yl)-2-((((CIS)-4-phenylcyclohexyl)oxy)methyl)pyrrolidin-3-yl)methanesulfonamide]	163 nM	99.3%
CS(=O)(=O)N[C@H]1CCN(c2cncc(O)n2)[C@H]1CO[C@H]1CC[C@@H](c2ccccc2)CC1 [Example 149, N-((2R,3S)-1-(6-hydroxypyrazin-2-yl)-2-((((CIS)-4-phenylcyclohexyl)oxy)methyl)pyrrolidin-3-yl)methanesulfonamide]	258 nM	97.7%
CS(=O)(=O)N[C@H]1CCN(c2cc(O)ncn2)[C@H]1CO[C@H]1CC[C@@H](c2ccccc2)CC1 [Example 150, N-((2R,3S)-1-(6-hydroxypyrimidin-4-yl)-2-((((CIS)-4-phenylcyclohexyl)oxy)methyl)pyrrolidin-3-yl)methanesulfonamide]	397 nM	99.4%
CS(=O)(=O)N[C@H]1CCN(c2cc(O)c(F)cn2)[C@H]1CO[C@H]1CC[C@@H](c2ccccc2)CC1 [Example 151, N-((2R,3S)-1-(5-fluoro-4-hydroxypyridin-2-yl)-2-((((CIS)-4-phenylcyclohexyl)oxy)methyl)pyrrolidin-3-yl)methanesulfonamide]	0.95 nM	97.7%
COc1cccc(N2CC[C@H](NS(C)(=O)=O)[C@@H]2CO[C@H]2CC[C@@H](c3ccccc3)CC2)n1 [Example 152, N-((2R,3S)-1-(6-methoxypyridin-2-yl)-2-((((CIS)-4-phenylcyclohexyl)oxy)methyl)pyrrolidin-3-yl)methanesulfonamide]	346 nM	97.6%
CS(=O)(=O)N[C@H]1CCN(c2cc(O)ncc2F)[C@H]1CO[C@H]1CC[C@@H](c2ccccc2)CC1 [Example 153, N-((2R,3S)-1-(5-fluoro-2-hydroxypyridin-4-yl)-2-((((CIS)-4-phenylcyclohexyl)oxy)methyl)pyrrolidin-3-yl)methanesulfonamide]	169 nM	100.8%
CS(=O)(=O)N[C@H]1CCN(c2cc[nH]c(=O)c2)[C@H]1CO[C@H]1CC[C@@H](c2ccccc2)CC1 [Example 154, N-((2R,3S)-1-(2-oxo-1,2-dihydropyridin-4-yl)-2-((((CIS)-4-phenylcyclohexyl)oxy)methyl)pyrrolidin-3-yl)methanesulfonamide]	52.3 nM	100.5%
CS(=O)(=O)N[C@H]1CCN(c2cccc(O)c2)[C@H]1CO[C@H]1CC[C@@H](c2ccccc2)CC1 [Example 155, N-((2R,3S)-1-(3-hydroxyphenyl)-2-((((CIS)-4-phenylcyclohexyl)oxy)methyl)pyrrolidin-3-yl)methanesulfonamide]	1860 nM	94.4%
C[C@@H]1C[C@H](NS(=O)(=O)N(C)C)[C@H](CO[C@H]2CC[C@@H](c3cccc(F)c3)CC2)N1c1nccc(O)c1F [Example 156, N′-((2R,3S,5R)-1-(3-fluoro-4-hydroxypyridin-2-yl)-2-((((CIS)-4-(3-fluorophenyl)cyclohexyl)oxy)methyl)-5-methylpyrrolidin-3-yl)-N,N-dimethyl-sulfamide]	0.45 nM	100.8%
C[C@@H]1C[C@H](NS(=O)(=O)N(C)C)[C@H](CO[C@H]2CC[C@@H](c3cccc(F)c3)CC2)N1c1cc(O)ccn1 [Example 157, N′-((2R,3S,5R)-2-((((CIS)-4-(3-fluorophenyl)cyclohexyl)oxy)methyl)-1-(4-hydroxypyridin-2-yl)-5-methylpyrrolidin-3-yl)-N,N-dimethyl-sulfamide]	0.25 nM	100.2%
CS(=O)(=O)N[C@H]1CCCN(c2nccc(O)c2F)[C@H]1CO[C@H]1CC[C@@H](c2ccccc2)CC1 [Example 158, N-((2R,3S)-1-(3-fluoro-4-hydroxypyridin-2-yl)-2-((((CIS)-4-phenylcyclohexyl)oxy)methyl)piperidin-3-yl)methanesulfonamide]	32.5 nM	99.7%
CS(=O)(=O)NC1CCCN(c2cccnc2)C1CO[C@H]1CC[C@@H](c2ccccc2)CC1 (stereo partly drawn) [Example 159, N-(2-((((CIS)-4-phenylcyclohexyl)oxy)methyl)-1-(pyridin-3-yl)piperidin-3-yl)methanesulfamide]	10.1 nM	100.9%
CS(=O)(=O)N[C@H]1CCN(c2nccc(O)c2F)[C@H]1COC1CCC(c2ccccc2C(F)(F)F)CC1 (stereo partly drawn) [Example 160, N-((2R,3S)-1-(3-fluoro-4-hydroxypyridin-2-yl)-2-(((4-(2-(trifluoromethyl)phenyl)cyclohexyl)-oxy)methyl)pyrrolidin-3-yl)methanesulfonamide]	6.1 nM	101.7%
CS(=O)(=O)N[C@H]1CCN(c2nccc(O)c2F)[C@H]1CO[C@H]1CC[C@@H](c2c(F)ccc(F)c2F)CC1 [Example 161, N-((2R,3S)-1-(3-fluoro-4-hydroxypyridin-2-yl)-2-((((CIS)-4-(2,3,6-trifluorophenyl)cyclohexyl)oxy)methyl)pyrrolidin-3-yl)methanesulfonamide]	2 nM	100.3%
CC(C)[C@H]1CC[C@@H](OC[C@H]2[C@@H](NS(C)(=O)=O)CCN2c2nccc(O)c2F)CC1 [Example 162, N-((2R,3S)-1-(3-fluoro-4-hydroxypyridin-2-yl)-2-((((CIS)-4-isopropylcyclohexyl)oxy)methyl)pyrrolidin-3-yl) methanesulfonamide]	24.3 nM	98.5%
CS(=O)(=O)N[C@H]1CCN(c2ncc(F)c(O)c2F)[C@H]1CO[C@H]1CC[C@@H](c2cccc(F)c2)CC1 [Example 163, N-((2R,3S)-1-(3,5-difluoro-4-hydroxypyridin-2-yl)-2-((((CIS)-4-(3-fluorophenyl)cyclohexyl)oxy)methyl)pyrrolidin-3-yl)methanesulfonamide]	1.4 nM	101.8%
C[C@@H]1C[C@H](NS(C)(=O)=O)[C@H](CO[C@H]2CC[C@@H](c3cccc(F)c3)CC2)N1c1[nH]ccc(=O)c1F [Example 164, N-((2R,3S,5R)-1-(3-fluoro-4-oxo-1,4-dihydropyridin-2-yl)-2-((((CIS)-4-(3-fluorophenyl)cyclohexyl)oxy)methyl)-5-methylpyrrolidin-3-yl)methanesulfonamide]	0.72 nM	98.6%
